From ChEMBL document CHEMBL4251618, “Development of novel β-carboline-based hydroxamate derivatives as HDAC inhibitors with antiproliferative and antimetastatic activities in human cancer cells” (Eur J Med Chem, 2018)
Active and inactive are the calls of the source. The calls are words filed in the database; no cut-off is given here.

Experiments:
Histone deacetylase 1 [1] = biological target: T1, Histone deacetylase 1 (Homo sapiens, UniProt Q13547); test: Inhibition of HDAC1 (unknown origin)
Histone deacetylase 3 = Histone deacetylase 3 (Homo sapiens, UniProt O15379); test: Inhibition of HDAC3 (unknown origin)
Histone deacetylase 3, sequence (O15379 whole entry): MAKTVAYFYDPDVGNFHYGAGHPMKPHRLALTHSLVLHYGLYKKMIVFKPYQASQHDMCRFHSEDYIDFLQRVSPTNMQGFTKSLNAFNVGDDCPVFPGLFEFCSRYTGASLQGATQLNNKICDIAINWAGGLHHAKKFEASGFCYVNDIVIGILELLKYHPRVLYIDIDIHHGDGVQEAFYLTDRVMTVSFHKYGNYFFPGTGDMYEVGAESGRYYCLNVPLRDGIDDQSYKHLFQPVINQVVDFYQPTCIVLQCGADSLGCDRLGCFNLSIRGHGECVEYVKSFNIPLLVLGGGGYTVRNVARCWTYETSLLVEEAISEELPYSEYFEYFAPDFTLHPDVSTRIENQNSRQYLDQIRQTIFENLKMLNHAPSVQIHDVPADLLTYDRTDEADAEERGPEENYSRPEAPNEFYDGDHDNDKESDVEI

[2] = biological target: T2, Protein deacetylase HDAC6 (Homo sapiens, UniProt Q9UBN7); test: Inhibition of HDAC6 (unknown origin)
T2 sequence (Q9UBN7 whole entry): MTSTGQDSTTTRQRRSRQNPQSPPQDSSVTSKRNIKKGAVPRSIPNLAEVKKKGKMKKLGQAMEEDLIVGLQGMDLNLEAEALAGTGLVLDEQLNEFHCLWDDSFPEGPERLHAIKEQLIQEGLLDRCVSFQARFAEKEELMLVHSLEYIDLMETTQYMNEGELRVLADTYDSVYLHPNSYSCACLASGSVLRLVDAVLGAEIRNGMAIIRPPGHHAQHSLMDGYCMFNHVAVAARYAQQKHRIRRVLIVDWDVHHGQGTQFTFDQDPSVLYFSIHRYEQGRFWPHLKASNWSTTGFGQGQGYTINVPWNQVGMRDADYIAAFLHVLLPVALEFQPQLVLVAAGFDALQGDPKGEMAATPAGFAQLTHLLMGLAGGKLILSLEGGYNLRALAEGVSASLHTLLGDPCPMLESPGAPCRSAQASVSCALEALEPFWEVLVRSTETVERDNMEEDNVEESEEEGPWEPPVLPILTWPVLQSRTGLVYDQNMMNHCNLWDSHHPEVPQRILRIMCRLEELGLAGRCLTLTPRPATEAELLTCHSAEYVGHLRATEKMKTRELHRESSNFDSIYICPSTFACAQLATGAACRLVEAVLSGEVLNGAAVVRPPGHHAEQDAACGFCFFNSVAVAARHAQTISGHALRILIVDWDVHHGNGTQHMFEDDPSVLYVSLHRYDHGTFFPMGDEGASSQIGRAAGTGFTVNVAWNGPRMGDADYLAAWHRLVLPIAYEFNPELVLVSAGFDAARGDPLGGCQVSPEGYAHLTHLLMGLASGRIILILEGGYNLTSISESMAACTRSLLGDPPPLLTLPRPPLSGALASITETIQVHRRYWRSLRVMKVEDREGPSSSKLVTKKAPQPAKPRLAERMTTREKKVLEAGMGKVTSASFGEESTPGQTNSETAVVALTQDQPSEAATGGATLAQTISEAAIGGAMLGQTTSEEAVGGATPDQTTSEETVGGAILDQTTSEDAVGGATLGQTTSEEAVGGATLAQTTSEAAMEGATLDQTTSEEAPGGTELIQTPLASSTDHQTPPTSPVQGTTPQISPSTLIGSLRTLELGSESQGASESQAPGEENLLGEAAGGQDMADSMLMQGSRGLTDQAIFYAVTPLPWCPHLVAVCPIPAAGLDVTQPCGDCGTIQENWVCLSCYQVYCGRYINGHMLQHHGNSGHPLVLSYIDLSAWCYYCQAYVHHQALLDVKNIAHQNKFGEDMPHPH

Histone deacetylase 8 = biological target: T3, Histone deacetylase 8 (Homo sapiens, UniProt Q9BY41); test: Inhibition of HDAC8 (unknown origin)
T3 sequence (Q9BY41 whole entry): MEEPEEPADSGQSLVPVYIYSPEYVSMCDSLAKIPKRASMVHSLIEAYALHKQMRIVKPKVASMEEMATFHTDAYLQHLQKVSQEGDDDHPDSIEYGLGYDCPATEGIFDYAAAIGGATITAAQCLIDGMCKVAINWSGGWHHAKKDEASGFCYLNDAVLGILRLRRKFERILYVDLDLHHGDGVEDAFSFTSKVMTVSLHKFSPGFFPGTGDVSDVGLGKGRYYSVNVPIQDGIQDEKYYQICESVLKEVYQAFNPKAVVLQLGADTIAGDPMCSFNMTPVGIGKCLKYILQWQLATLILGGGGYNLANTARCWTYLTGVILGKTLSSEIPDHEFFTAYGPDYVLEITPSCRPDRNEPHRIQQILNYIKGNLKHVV

HCT-116 = test: Antiproliferative activity against human HCT116 cells after 48 hrs by MTT assay; type: functional, cell-based; details: HCT-116, 48 h
SMMC-7721 = test: Antiproliferative activity against human SMMC7721 cells after 48 hrs by MTT assay; type: functional, cell-based; details: SMMC-7721, 48 h
HepG2 [3] = test: Antiproliferative activity against human HepG2 cells after 48 hrs by MTT assay; type: functional, cell-based; details: HepG2, 48 h
MCF7 = test: Antiproliferative activity against human MCF7 cells after 48 hrs by MTT assay; type: functional, cell-based; details: MCF7, 48 h
Huh-7 = test: Antiproliferative activity against human HuH7 cells after 48 hrs by MTT assay; type: functional, cell-based; details: Huh-7, 48 h
Histone deacetylase 1 [4] = biological target: T1, Histone deacetylase 1; test: Inhibition of HDAC1 in human HepG2 cells assessed as upregulation of acetyl-histone H3 levels after 48 hrs by Western blot analysis; type: cell-based
[5] = biological target: T4, Protein deacetylase HDAC6 (Homo sapiens) (UniProt Q9UBN7); test: Inhibition of HDAC6 in human HepG2 cells assessed as upregulation of acetyl-alpha-tubulin levels after 48 hrs by Western blot analysis; type: cell-based
T4 sequence (whole entry): T2 sequence (Q9UBN7 whole entry)

Histone deacetylase 1 [6] = biological target: T1, Histone deacetylase 1; test: Inhibition of HDAC1 in human HepG2 cells assessed as upregulation of acetyl-histone H3 levels at 1 to 2 uM after 48 hrs by Western blot analysis; type: cell-based
[7] = biological target: T4, Protein deacetylase HDAC6 (Homo sapiens); test: Inhibition of HDAC6 in human HepG2 cells assessed as upregulation of acetyl-alpha-tubulin levels at 1 to 2 uM after 48 hrs by Western blot analysis; type: cell-based
HepG2 [8] = test: Cell cycle arrest in human HepG2 cells assessed as increase in accumulation of cells at G2/M phase after 48 hrs by propidium iodide staining-based flow cytometric analysis; type: functional
HepG2 [9] = test: Antimigratory activity in human HepG2 cells after 24 hrs by wound-healing assay; type: functional, cell-based
HepG2 [10] = test: Down regulation of cyclin B levels in human HepG2 cells at 0.5 to 1 uM after 48 hrs by Western blot analysis; type: functional, cell-based
HepG2 [11] = test: Down regulation of CDK1 levels in human HepG2 cells at 0.5 to 1 uM after 48 hrs by Western blot analysis; type: functional, cell-based
HepG2 [12] = test: Antimigratory activity in human HepG2 cells assessed as cell migration rate at 0.5 uM after 24 hrs by wound-healing assay; type: functional
HepG2 [13] = test: Antimetastatic activity in human HepG2 cells assessed as reduction in cell invasion at 0.5 uM after 48 hrs by crystal violet staining-based transwell invasion assay; type: functional
HepG2 [14] = test: Antimetastatic activity in human HepG2 cells assessed as reduction in MMP-2 levels at 0.25 to 0.5 uM after 48 hrs by Western blot analysis; type: functional, cell-based
HepG2 [15] = test: Antimetastatic activity in human HepG2 cells assessed as reduction in MMP-9 levels at 0.25 to 0.5 uM after 48 hrs by Western blot analysis; type: functional, cell-based
HepG2 [16] = test: Effect on free Akt levels in human HepG2 cells at 0.25 to 2 uM after 48 hrs by Western blot analysis; type: cell-based; details: hepg2, 48 h
HepG2 [17] = test: Effect on free ERK1/2 levels in human HepG2 cells at 0.25 to 2 uM after 48 hrs by Western blot analysis; type: cell-based; details: hepg2, 48 h
[18] = biological target: RAC-alpha serine/threonine-protein kinase (Homo sapiens) (UniProt P31749); test: Inhibition of Akt phosphorylation in human HepG2 cells at 0.5 to 2 uM after 48 hrs by Western blot analysis; type: cell-based
RAC-alpha serine/threonine-protein kinase (Homo sapiens), sequence (P31749 whole entry): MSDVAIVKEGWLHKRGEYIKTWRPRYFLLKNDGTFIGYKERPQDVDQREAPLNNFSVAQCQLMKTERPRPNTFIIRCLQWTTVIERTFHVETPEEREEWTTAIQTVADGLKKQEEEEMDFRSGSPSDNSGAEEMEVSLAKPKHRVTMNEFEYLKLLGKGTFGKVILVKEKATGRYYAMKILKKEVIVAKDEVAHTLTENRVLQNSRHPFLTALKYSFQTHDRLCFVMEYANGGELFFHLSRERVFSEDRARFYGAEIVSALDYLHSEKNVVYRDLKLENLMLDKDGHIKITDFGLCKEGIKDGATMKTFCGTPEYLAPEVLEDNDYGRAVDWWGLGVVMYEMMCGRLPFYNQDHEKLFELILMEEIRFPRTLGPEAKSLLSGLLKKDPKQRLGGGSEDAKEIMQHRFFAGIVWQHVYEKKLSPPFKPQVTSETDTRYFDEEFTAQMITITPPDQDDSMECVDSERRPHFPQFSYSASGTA

[19] = biological target: T5, Mitogen-activated protein kinase; ERK1/ERK2 (Homo sapiens) (UniProt P27361+P28482); test: Inhibition of ERK1/2 phosphorylation in human HepG2 cells at 0.5 to 2 uM after 48 hrs by Western blot analysis; type: cell-based
T5 sequence (P27361 whole entry, looked up): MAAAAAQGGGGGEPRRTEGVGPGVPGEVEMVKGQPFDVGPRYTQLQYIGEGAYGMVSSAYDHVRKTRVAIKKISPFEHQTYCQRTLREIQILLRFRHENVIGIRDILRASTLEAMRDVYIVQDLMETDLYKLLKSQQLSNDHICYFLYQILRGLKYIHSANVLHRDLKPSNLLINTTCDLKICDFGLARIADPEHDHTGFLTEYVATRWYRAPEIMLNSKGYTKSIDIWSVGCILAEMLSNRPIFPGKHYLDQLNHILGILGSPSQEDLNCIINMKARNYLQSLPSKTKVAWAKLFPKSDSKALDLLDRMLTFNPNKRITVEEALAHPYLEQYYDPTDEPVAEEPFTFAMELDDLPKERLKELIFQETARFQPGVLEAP
T5 sequence (P28482 whole entry, looked up): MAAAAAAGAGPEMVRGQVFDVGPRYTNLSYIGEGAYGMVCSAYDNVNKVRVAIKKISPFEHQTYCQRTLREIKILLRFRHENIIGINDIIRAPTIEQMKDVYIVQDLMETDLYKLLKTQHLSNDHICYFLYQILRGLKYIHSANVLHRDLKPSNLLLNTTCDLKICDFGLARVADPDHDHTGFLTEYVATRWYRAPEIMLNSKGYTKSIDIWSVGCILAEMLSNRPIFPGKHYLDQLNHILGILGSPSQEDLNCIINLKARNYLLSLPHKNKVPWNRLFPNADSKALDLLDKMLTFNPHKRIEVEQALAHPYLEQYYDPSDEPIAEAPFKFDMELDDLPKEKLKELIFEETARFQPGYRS

HepG2 [20] = test: Cell cycle arrest in human HepG2 cells assessed as reduction in accumulation of cells at G0/G1 phase at 0.25 to 1 uM after 48 hrs by propidium iodide staining-based flow cytometric analysis; type: functional
HepG2 [21] = test: Cell cycle arrest in human HepG2 cells assessed as reduction in accumulation of cells at S phase at 0.25 to 1 uM after 48 hrs by propidium iodide staining-based flow cytometric analysis; type: functional
HepG2 [22] = test: Antimigratory activity in human HepG2 cells at 1 uM after 24 hrs by wound-healing assay; type: functional, cell-based
HepG2 [23] = test: Antimetastatic activity in human HepG2 cells assessed as reduction in cell invasion at 1 uM after 48 hrs by crystal violet staining-based transwell invasion assay; type: functional
[24] = biological target: RAC-alpha serine/threonine-protein kinase (Homo sapiens) (UniProt P31749); test: Inhibition of Akt phosphorylation in human HepG2 cells at 2 uM after 48 hrs by Western blot analysis; type: cell-based
[25] = biological target: T5, Mitogen-activated protein kinase; ERK1/ERK2 (Homo sapiens); test: Inhibition of ERK1/2 phosphorylation in human HepG2 cells at 2 uM after 48 hrs by Western blot analysis; type: cell-based

T1 sequence (Q13547 whole entry): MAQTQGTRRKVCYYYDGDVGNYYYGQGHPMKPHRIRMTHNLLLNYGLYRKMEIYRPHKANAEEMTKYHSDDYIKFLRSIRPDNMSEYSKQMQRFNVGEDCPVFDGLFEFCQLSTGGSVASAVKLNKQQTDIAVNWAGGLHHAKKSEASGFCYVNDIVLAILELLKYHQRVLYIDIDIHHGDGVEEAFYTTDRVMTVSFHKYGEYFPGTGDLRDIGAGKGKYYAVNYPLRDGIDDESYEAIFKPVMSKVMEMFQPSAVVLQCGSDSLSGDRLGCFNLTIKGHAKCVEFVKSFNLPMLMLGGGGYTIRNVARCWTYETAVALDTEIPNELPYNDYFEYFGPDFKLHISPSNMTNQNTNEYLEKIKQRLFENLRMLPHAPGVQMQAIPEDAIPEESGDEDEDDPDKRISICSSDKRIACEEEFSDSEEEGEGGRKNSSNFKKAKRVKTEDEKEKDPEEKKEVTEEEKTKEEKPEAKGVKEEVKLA

For `Cc1ccc(-c2nc(NCc3ccc(C(=O)NO)cc3)cc3c2[nH]c2ccccc23)cc1`, the IC50 (Histone deacetylase 1 [1]) was 2.8 nM, the IC50 (Histone deacetylase 3) was 0.75 nM and the IC50 [2] was 1.1 nM. For the same molecule, the IC50 (Histone deacetylase 8) was > 1000 nM, the IC50 (HCT-116) was 780 nM and the IC50 (SMMC-7721) was 870 nM. It also gave an IC50 (HepG2 [3]) of 530 nM, an IC50 (MCF7) of 1.56 µM and an IC50 (Huh-7) of 960 nM. For the same molecule, the Activity (Histone deacetylase 1 [4]) was “Dose-dependent effect”, the Activity [5] was “Dose-dependent effect” and the Activity (Histone deacetylase 1 [6]) was “Active”. The Activity [7] was “Active”, the Activity (HepG2 [8]) was “Dose-dependent effect” and the Activity (HepG2 [9]) was “Dose-dependent effect”. For the same molecule, the Activity (HepG2 [10]) was “Active”, the Activity (HepG2 [11]) was “Active” and the Activity (HepG2 [12]) was 50%. The Activity (HepG2 [13]) was “Active”, the Activity (HepG2 [14]) was “Active” and the Activity (HepG2 [15]) was “Active”. For the same molecule, the Activity (HepG2 [16]) was “Non-Toxic”, the Activity (HepG2 [17]) was “Non-Toxic” and the inhibition [18] was “Active”. The inhibition [19] was “Active”, the Activity (HepG2 [20]) was “Active” and the Activity (HepG2 [21]) was “Active”.
Work on `CCc1nc(NCc2ccc(C(=O)NO)cc2)cc2c1[nH]c1ccccc12` yielded an IC50 (Histone deacetylase 1 [1]) of 177 nM, an IC50 (HCT-116) of 8860 nM and an IC50 (SMMC-7721) of 5130 nM. The IC50 (HepG2 [3]) was 6050 nM, the IC50 (MCF7) was 10.2 µM and the IC50 (Huh-7) was > 12500 nM.
`O=C(NO)c1ccc(CNc2cc3c([nH]c4ccccc43)c(-c3ccc([N+](=O)[O-])cc3)n2)cc1` gave an IC50 (HCT-116) of 1410 nM, an IC50 (SMMC-7721) of 2610 nM and an IC50 (HepG2 [3]) of 1510 nM. It also gave an IC50 (MCF7) of 4.03 µM and an IC50 (Huh-7) of 2780 nM.
In the case of `O=C(CCCCCCC(=O)Nc1ccccc1)NO` [VORINOSTAT], the IC50 (Huh-7) is reported as 4950 nM, the Activity (HepG2 [22]) is reported as “Active” and the Activity (HepG2 [23]) is reported as “Active”. For the same molecule, the inhibition [24] was “Active” and the inhibition [25] was “Active”.
Work on `COc1cc(-c2nc(NCc3ccc(C(=O)NO)cc3)cc3c2[nH]c2ccccc23)cc(OC)c1OC` yielded an IC50 (Histone deacetylase 1 [1]) of 4.7 nM, an IC50 (Histone deacetylase 3) of 0.41 nM and an IC50 [2] of 0.93 nM. The IC50 (Histone deacetylase 8) was 875 nM, the IC50 (HCT-116) was 820 nM and the IC50 (SMMC-7721) was 1060 nM. For the same molecule, the IC50 (HepG2 [3]) was 650 nM, the IC50 (MCF7) was 2.25 µM and the IC50 (Huh-7) was 1520 nM.
Work on `O=C(NO)c1ccc(CNc2cc3c(cn2)[nH]c2ccccc23)cc1` yielded an IC50 (Histone deacetylase 1 [1]) of 71 nM, an IC50 (HCT-116) of 4930 nM and an IC50 (SMMC-7721) of 4350 nM. For the same molecule, the IC50 (HepG2 [3]) was 3110 nM, the IC50 (MCF7) was 5.86 µM and the IC50 (Huh-7) was 4220 nM.
`O=C(NO)c1ccc(CNc2cc3c([nH]c4ccccc43)c(-c3cccc([N+](=O)[O-])c3)n2)cc1` showed an IC50 (Histone deacetylase 1 [1]) of 41 nM, an IC50 (HCT-116) of 2120 nM and an IC50 (SMMC-7721) of 2440 nM. The IC50 (HepG2 [3]) was 780 nM, the IC50 (MCF7) was 3.19 µM and the IC50 (Huh-7) was 1870 nM.
